Laboratory results: ChEMBL document CHEMBL5108019, “Discovery of a novel Pleuromutilin derivative as anti-IPF lead compound via high-throughput assay” (Eur J Med Chem, 2022)
Active and inactive are the calls of the source. The rule behind the calls is not given here.

What was measured:
[1] = Oral bioavailability in Sprague-Dawley rat at 100 mg/kg measured for 18 hrs by LC-MS/MS analysis; format: ADME, organism-based; conditions: in vivo
Mus musculus [2] = test: Antifibrotic activity against BLM-induced pulmonary fibrosis in C57BL/6 mouse model assessed as reduction in fibrosis region at 200 mg/kg, po administered once daily starting from day 7 post BLM treatment and measured on day 14 by hematoxylin-eosin and Masson trichrome staining based analysis relative to control; format: functional, organism-based; conditions: time 14.0 day
[3] = Toxicity in C57BL/6 mouse assessed as animal survival at 500 mg/kg, po administered once every day for 30 days; format: organism-based; conditions: in vivo, 720 h, time 30 day
Pulmonary fibroblast [4] = test: Inhibition of TGF-beta1 induced cell stimulation in mouse pulmonary fibroblast cells assessed as reduction in alpha-SMA protein expression at 10 to 40 uM incubated for 24 hrs by Western blot analysis; format: functional, cell-based; conditions: dose 10-40 µM
Mus musculus [5] = test: Antifibrotic activity against BLM-induced pulmonary fibrosis in C57BL/6 mouse model assessed as reduction in collagen content in lungs at 100 to 200 mg/kg, po administered once daily starting from day 7 post BLM treatment and measured on day 14 by hydroxyproline method; format: functional, organism-based; conditions: dose 100-200 mg/kg, time 14.0 day
[6] = Tmax in Sprague-Dawley rat at 10 mg/kg, iv measured for 12 hrs by LC-MS/MS analysis; format: ADME, organism-based; conditions: in vivo
[7] = Clearance in Sprague-Dawley rat at 10 mg/kg, iv measured for 12 hrs by LC-MS/MS analysis; format: ADME, organism-based; conditions: in vivo
[8] = Toxicity in C57BL/6 mouse assessed as animal survival at 500 mg/kg, IG administered once every day for 7 days; format: organism-based; conditions: in vivo, po, 168 h, time 7 day
[9] = Inhibition of TGF-beta1 induced cell proliferation in mouse MLg cells measured after 24 hrs by MTT assay; format: functional, cell-based
[10] = target: Transforming growth factor beta-1 proprotein/Mothers against decapentaplegic homolog 3 (Mus musculus) (UniProt P04202+Q8BUN5); test: Inhibition of TGF-beta1/Smad3 signalling in TGF-beta1 treated mouse NIH3T3 cells transfected with (CAGA)12-Lux reporter gene assessed as suppressive ratio at 10 uM incubated for 18 hrs by luciferase based analysis relative to control; format: cell-based; set-up: scale not given: the % may be the effect or the level left
Chain of Transforming growth factor beta-1 proprotein/Mothers against decapentaplegic homolog 3 (Mus musculus) (P04202 279-390 limits assumed): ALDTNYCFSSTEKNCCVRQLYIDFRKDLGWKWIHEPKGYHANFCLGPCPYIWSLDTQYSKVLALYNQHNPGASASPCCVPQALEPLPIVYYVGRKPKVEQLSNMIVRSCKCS
Chain of Transforming growth factor beta-1 proprotein/Mothers against decapentaplegic homolog 3 (Mus musculus) (Q8BUN5 2-425 partner limits assumed): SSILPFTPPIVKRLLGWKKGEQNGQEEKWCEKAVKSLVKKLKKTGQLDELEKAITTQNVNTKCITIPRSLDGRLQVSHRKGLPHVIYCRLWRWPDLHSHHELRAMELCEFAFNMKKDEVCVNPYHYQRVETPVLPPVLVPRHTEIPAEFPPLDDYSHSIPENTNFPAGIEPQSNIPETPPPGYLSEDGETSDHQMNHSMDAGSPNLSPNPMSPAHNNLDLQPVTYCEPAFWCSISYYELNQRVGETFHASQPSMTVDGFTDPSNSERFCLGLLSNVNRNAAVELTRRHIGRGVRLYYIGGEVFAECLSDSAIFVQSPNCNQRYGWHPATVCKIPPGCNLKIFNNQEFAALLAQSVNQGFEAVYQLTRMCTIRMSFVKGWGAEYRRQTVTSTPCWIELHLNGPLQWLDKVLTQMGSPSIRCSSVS

[11] = Clearance in Sprague-Dawley rat at 100 mg/kg, po measured for 18 hrs by LC-MS/MS analysis; format: ADME, organism-based; conditions: in vivo
[12] = AUC (0 to t) in Sprague-Dawley rat at 10 mg/kg, iv measured for 12 hrs by LC-MS/MS analysis; format: ADME, organism-based; set-up: dose 10 mg/kg, time 12 hrs, route iv; conditions: in vivo
Mus musculus [13] = test: Antifibrotic activity against BLM-induced pulmonary fibrosis in C57BL/6 mouse model assessed as improvement in pulmonary alveolar structure damage at 100 to 200 mg/kg, po administered once daily starting from day 7 post BLM treatment and measured on day 14 by H and E staining based analysis; format: functional, organism-based; conditions: dose 100-200 mg/kg, time 14.0 day
[14] = target: Mothers against decapentaplegic homolog 3 (Mus musculus) (UniProt Q8BUN5); test: Inhibition of TGF-beta1 induced Smad3 phosphorylation in mouse pulmonary fibroblast cells at 10 to 40 uM incubated for 0.5 hrs by Western blot analysis; format: cell-based; conditions: dose 10-40 µM
Chain of Mothers against decapentaplegic homolog 3 (Mus musculus) (Q8BUN5 whole entry, looked up): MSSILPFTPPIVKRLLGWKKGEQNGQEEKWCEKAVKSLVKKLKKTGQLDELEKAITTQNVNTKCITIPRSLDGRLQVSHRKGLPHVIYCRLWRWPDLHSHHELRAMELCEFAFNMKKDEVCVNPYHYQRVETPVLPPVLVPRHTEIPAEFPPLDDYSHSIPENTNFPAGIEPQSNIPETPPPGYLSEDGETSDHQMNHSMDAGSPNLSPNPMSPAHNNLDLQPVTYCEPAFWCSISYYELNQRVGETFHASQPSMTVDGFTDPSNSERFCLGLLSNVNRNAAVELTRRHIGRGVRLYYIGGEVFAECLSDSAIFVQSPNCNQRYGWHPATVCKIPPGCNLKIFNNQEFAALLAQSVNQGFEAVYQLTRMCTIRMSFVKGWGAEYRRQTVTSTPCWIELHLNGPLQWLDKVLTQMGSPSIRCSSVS

[15] = target: Transforming growth factor beta-1 proprotein/Mothers against decapentaplegic homolog 3 (Mus musculus, UniProt P04202+Q8BUN5); test: Inhibition of TGF-beta1/Smad3 signalling in TGF-beta1 treated mouse NIH3T3 cells transfected with (CAGA)12-Lux reporter gene incubated for 18 hrs by luciferase based analysis; format: cell-based
Chain of Transforming growth factor beta-1 proprotein/Mothers against decapentaplegic homolog 3 (P04202 279-390 limits assumed): as the sequence (P04202 279-390 limits assumed) above
Chain of Transforming growth factor beta-1 proprotein/Mothers against decapentaplegic homolog 3 (Q8BUN5 2-425 limits assumed): as the sequence (Q8BUN5 2-425 partner limits assumed) above

[16] = Toxicity in C57BL/6 mouse assessed as toxic symptoms at 500 mg/kg, po administered once every day for 30 days; format: organism-based; conditions: in vivo, 720 h, time 30 day
Staphylococcus aureus = test: Antibacterial activity against Staphylococcus aureus assessed as bacterial growth inhibition incubated for 24 hrs; format: functional
Mus musculus [17] = test: Antifibrotic activity against BLM-induced pulmonary fibrosis in C57BL/6 mouse model assessed as reduction in extracellular matrix generation at 200 mg/kg, po administered once daily starting from day 7 post BLM treatment and measured on day 14 by hydroxyproline method; format: functional, organism-based; conditions: time 14.0 day
Escherichia coli = test: Antibacterial activity against Escherichia coli assessed as bacterial growth inhibition incubated for 24 hrs; format: functional
Mus musculus [18] = test: Antifibrotic activity against BLM-induced pulmonary fibrosis in C57BL/6 mouse model assessed as improvement in inspiratory resistance at 200 mg/kg, po administered once daily starting from day 7 post BLM treatment and measured on day 14 by plethysmography chamber based pulmonary function analysis; format: functional; conditions: time 14 day
Mus musculus [19] = test: Antifibrotic activity against BLM-induced pulmonary fibrosis in C57BL/6 mouse model assessed as improvement in expiratory resistance at 200 mg/kg, po administered once daily starting from day 7 post BLM treatment and measured on day 14 by plethysmography chamber based pulmonary function analysis; format: functional, organism-based; conditions: time 14.0 day
Mus musculus [20] = test: Antifibrotic activity against BLM-induced pulmonary fibrosis in C57BL/6 mouse model assessed as improvement in dynamic compliance at 200 mg/kg, po administered once daily starting from day 7 post BLM treatment and measured on day 14 by plethysmography chamber based pulmonary function analysis; format: functional; conditions: time 14 day
[21] = Cmax in Sprague-Dawley rat at 10 mg/kg, iv measured for 12 hrs by LC-MS/MS analysis; format: ADME, organism-based; set-up: dose 10 mg/kg, time 12 hrs, route iv; conditions: in vivo
[22] = Half life in Sprague-Dawley rat at 10 mg/kg, iv measured for 12 hrs by LC-MS/MS analysis; format: ADME, organism-based; conditions: in vivo
Pulmonary fibroblast [23] = test: Inhibition of TGF-beta1 induced extracellular matrix development in mouse pulmonary fibroblast cells assessed as reduction in alpha-SMA mRNA expression at 10 to 40 uM incubated for 24 hrs by RT-PCR analysis; format: functional, cell-based; conditions: dose 10-40 µM
[24] = Cmax in Sprague-Dawley rat at 100 mg/kg, po measured for 18 hrs by LC-MS/MS analysis; format: ADME, organism-based; set-up: dose 100 mg/kg, time 18 hrs, route po; conditions: in vivo
Mus musculus [25] = test: Antifibrotic activity against BLM-induced pulmonary fibrosis in C57BL/6 mouse model assessed as improvement in forced vital capacity at 200 mg/kg, po administered once daily starting from day 7 post BLM treatment and measured on day 14 by plethysmography chamber based pulmonary function analysis; format: functional; conditions: time 14 day
[26] = Tmax in Sprague-Dawley rat at 100 mg/kg, po measured for 18 hrs by LC-MS/MS analysis; format: ADME, organism-based; conditions: in vivo
Mus musculus [27] = test: Antifibrotic activity against BLM-induced pulmonary fibrosis in C57BL/6 mouse model assessed as reduction in fibrosis region at 100 mg/kg, po administered once daily starting from day 7 post BLM treatment and measured on day 14 by hematoxylin-eosin and Masson trichrome staining based analysis relative to control; format: functional, organism-based; conditions: time 14.0 day
Bacillus subtilis = test: Antibacterial activity against Bacillus subtilis assessed as bacterial growth inhibition incubated for 24 hrs; format: functional
[28] = Toxicity in C57BL/6 mouse assessed as animal survival at 1000 mg/kg, IG administered as single dose; format: organism-based; conditions: in vivo, po
[29] = AUC (0 to t) in Sprague-Dawley rat at 100 mg/kg, po measured for 18 hrs by LC-MS/MS analysis; format: ADME, organism-based; set-up: dose 100 mg/kg, time 18 hrs, route po; conditions: in vivo
[30] = Half life in Sprague-Dawley rat at 100 mg/kg, po measured for 18 hrs by LC-MS/MS analysis; format: ADME, organism-based; conditions: in vivo

SMILES: C=C[C@]1(C)C[C@@H](O)[C@]2(C)[C@H](C)CC[C@]3(C/C(=C\c4ccc(C(=O)NC5CCCCC5)cc4)C(=O)[C@H]32)[C@@H](C)[C@@H]1O
- bioavailability [1]: 61.2%
- Activity (Mus musculus [2]): Active
- Activity [3]: Non-Toxic
- inhibition (Pulmonary fibroblast [4]): Active
- Activity (Mus musculus [5]): Active
- Tmax [6]: 39.6 s
- clearance [7]: 27.1 mL/min
- Activity [8]: Non-Toxic
- IC50 [9]: 160 µM
- Activity [10]: 58.4%
- CL/F [11]: 7.62 mL/min
- AUC(0-t) at 12 h [12]: 2900 ng·h/mL
- Activity (Mus musculus [13]): Active
- inhibition [14]: Active
- IC50 [15]: 60.3 µM
- Activity [16]: Non-Toxic
- MIC (Staphylococcus aureus): > 1000 µg/mL
- Activity (Mus musculus [17]): Active
- MIC (Escherichia coli): > 1000 µg/mL
- Activity (Mus musculus [18]): 51.03%
- Activity (Mus musculus [19]): Active
- Activity (Mus musculus [20]): 38.85%
- Cmax [21]: 2270 ng/mL
- half-life [22]: 0.488 h
- inhibition (Pulmonary fibroblast [23]): Active
- Cmax [24]: 2160 ng/mL
- Activity (Mus musculus [25]): 76.47%
- Tmax [26]: 3.33 h
- Activity (Mus musculus [27]): Active
- MIC (Bacillus subtilis): > 1000 µg/mL
- Activity [28]: Non-Toxic
- AUC(0-t) at 18 h [29]: 17800 ng·h/mL
- half-life [30]: 9.21 h
